Test results: PMC10072326, “Promising anticancer agents based on 8-hydroxyquinoline hydrazone copper(II) complexes” (Frontiers in Chemistry, 2023)

Tests used:
S. aureus ATCC 25928 = assay: MIC determination; assay type: cell-based, Staphylococcus aureus; settings: S. aureus ATCC 25928 (sensitive); 18 h
Protocol: (§1) Wild-type Escherichia coli K-12 AG100 strain [argE3 thi-1 rpsL xyl mtl Δ(gal-uvrB) supE44] expressing the AcrAB TolC efflux pump at its basal level and Klebsiella pneumoniae ATCC 49619 Gram-negative strains were studied in the experiments. Sensitive (ATCC 25928) and the methicillin-resistant (MRSA 272123) subspecies of Staphylococcus aureus were used as Gram-positive strains in the assays.
(§2) Minimum inhibitory concentration (MIC) values of selected compounds were determined in 96-well plates based on the Clinical and Laboratory Standard Institute guidelines (CLSI guidelines). The stock solutions of the compounds were dissolved in DMSO using 1.3 μL of Mueller Hinton Broth, and then two-fold serial dilutions were performed. The starting concentration of the compounds was 100 μM. Then 10^‒4 dilution of an overnight bacterial culture in 100 μL of medium was added to each well, except for the medium control wells.

A-375 cells = assay: Sulforhodamine B (SRB) cell viability assay; assay type: cell-based; settings: 72 h
A-549 cells = assay: Sulforhodamine B (SRB) cell viability assay; assay type: cell-based; settings: 72 h
[1] = biological target: bovine serum albumin (BSA) (Bos taurus, UniProt P02769); assay: BSA fluorescence quenching; assay type: binding; design: Affinity constant K ± SD: unit not given here; settings: for Affinity constant K ± SD: fluorescence quenching, HypSpec2014, 1:1 species assumed
Protocol: To evaluate the interaction of the compounds, both organic and Cu(II) complexes, with bovine serum albumin (BSA) fluorescence spectra were measured. In a typical fluorescence experiment, to a solution of 1.5 μM of BSA in the same buffer, successive aliquots of a stock solution of each compound in DMSO were added directly to the cuvette (optical path 1.0 cm). The fluorescence emission was recorded between 310 and 600 nm with excitation at 295 nm. The final DMSO % was kept below 2% (v/v). The Stern-Volmer plots were built using the emission at 340 nm and blank samples (in the absence of BSA) with the same concentration of the complexes were recorded and subsequently subtracted from the corresponding emission spectra containing the fluorophore. Moreover, the fluorescence emission intensity was corrected for reabsorption and inner filter effects using UV-Vis absorption data recorded for each sample, since all complexes absorb in the measured wavelength range (19, 20).
The interaction of the organic compounds and Cu(II) complexes with BSA was monitored by studying the quenching of albumin’s fluorescence emission with increasing concentrations of the complexes (25). Overall, the intensity of the Trp emission decreases with the addition of the complexes, except for 8 (see Figs. S19). The Stern-Volmer relationship was used to analyse the fluorescence quenching process:
where I0 and I are the fluorescence intensities in the absence and in the presence of quencher, kq is the bimolecular quenching rate, τ0 is the fluorophore lifetime in the absence of the quencher (6.22 ns) (26) and [Q] is the quencher concentration. […] This linear relationship is obeyed for all complexes except 5, where a downward curvature is observed. This can be an indication of two distinct binding sites, corresponding to two populations of fluorophores, one being accessible and other inaccessible or buried inside the protein. In such cases, the Stern-Volmer relation can be modified to (27):
where ΔI = I0 – I, Ka is the Stern-Volmer constant for the accessible fraction and fa is the fraction of accessible fluorophore. […] As first approximation, the total concentration of quencher was used to check the quenching mechanism. […] As all systems presented high absorbance values in the measured range of wavelengths, no excess of quencher was used and, therefore, 1:1 species will be assumed for these interactions.

calf thymus DNA (ctDNA) = assay: ctDNA thermal denaturation; assay type: binding; settings: for ΔTm: equimolar amounts of compound and DNA, HEPES 0.01 M, pH 7.4; for melting temperature Tm of ctDNA with compound: equimolar mixtures (25 µM), 10 mM HEPES pH 7.4, 1.5% DMSO
Source text: Nucleic acids are potential targets for metallodrugs and, consequently, evaluation of the interactions of the compounds with DNA and corresponding binding strength is relevant under the scope of this work. Thermal denaturation is a useful technique to measure the stability of the secondary structure of DNA (29). Under the chosen experimental conditions (HEPES, 0.01 M, pH 7.4), it is possible to follow the denaturation of calf thymus DNA (ctDNA) double strand.

[2] = test system: Klebsiella pneumoniae ATCC 49619; assay: MIC determination; assay type: cell-based; settings: K. pneumoniae; 18 h
Protocol: as §1, §2

[3] = test system: Escherichia coli K-12 AG100; assay: MIC determination; assay type: cell-based; settings: E. coli; 18 h
Protocol: as §1, §2

Chain of bovine serum albumin (BSA) (P02769 25-607): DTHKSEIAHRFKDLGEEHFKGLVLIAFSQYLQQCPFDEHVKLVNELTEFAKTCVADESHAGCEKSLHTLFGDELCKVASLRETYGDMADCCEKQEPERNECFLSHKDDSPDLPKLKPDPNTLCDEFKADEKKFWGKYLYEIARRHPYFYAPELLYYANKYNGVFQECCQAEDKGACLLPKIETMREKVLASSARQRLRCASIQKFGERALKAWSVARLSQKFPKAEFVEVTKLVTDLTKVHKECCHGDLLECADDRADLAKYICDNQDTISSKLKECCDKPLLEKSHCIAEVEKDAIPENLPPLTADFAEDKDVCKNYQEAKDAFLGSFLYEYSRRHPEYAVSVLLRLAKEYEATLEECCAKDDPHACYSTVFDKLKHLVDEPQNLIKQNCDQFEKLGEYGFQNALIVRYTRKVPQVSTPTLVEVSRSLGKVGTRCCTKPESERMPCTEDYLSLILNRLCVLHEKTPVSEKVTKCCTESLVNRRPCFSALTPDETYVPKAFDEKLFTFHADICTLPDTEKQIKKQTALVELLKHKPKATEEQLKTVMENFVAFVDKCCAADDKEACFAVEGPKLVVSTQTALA

CC(=O)[O-].O=C(NN=Cc1ccc2cccc([O-])c2n1)c1ccccc1.[Cu+2] [Complex 1, [Cu(HL^1)(AcO)]]
MIC (S. aureus ATCC 25928): 50 µM
IC50 (A-375 cells): 2.7 ± 0.03 µM
IC50 (A-549 cells): 4.2 ± 0.2 µM
Affinity constant K ± SD [1]: (8.4 ± 6.6) × 10^7
ΔTm (calf thymus DNA (ctDNA)): >25.0 °C
MIC [2]: > 100 µM
MIC [3]: > 100 µM

[Cu+2].[O-]C(=NN=Cc1ccc2cccc([O-])c2n1)c1ccc(F)cc1 [Complex 3, [Cu(L^3)]3]
MIC (S. aureus ATCC 25928): 100 µM
IC50 (A-375 cells): 5.1 ± 0.3 µM
IC50 (A-549 cells): 8.9 ± 0.2 µM
Affinity constant K ± SD [1]: (3.4 ± 0.7) × 10^5
ΔTm (calf thymus DNA (ctDNA)): 13.0 °C
melting temperature Tm of ctDNA with compound (calf thymus DNA (ctDNA)): 73.2 ± 1.7 °C
MIC [2]: > 100 µM
MIC [3]: > 100 µM

COc1ccc(C([O-])=NN=Cc2ccc3cccc([O-])c3n2)cc1.[Cu+2] [Complex 5, [Cu(L^5)]3]
MIC (S. aureus ATCC 25928): 100 µM
IC50 (A-375 cells): 3.4 ± 0.1 µM
IC50 (A-549 cells): 5.1 ± 0.01 µM
Affinity constant K ± SD [1]: (1.05 ± 0.04) × 10^5
Stern-Volmer constant for the accessible fraction Ka ([1]; modified Stern-Volmer): 2.1e+06 M⁻¹
fraction of accessible fluorophore fa ([1]; modified Stern-Volmer): 0.24
ΔTm (calf thymus DNA (ctDNA)): 17.7 °C
melting temperature Tm of ctDNA with compound (calf thymus DNA (ctDNA)): 77.9 ± 1.3 °C
MIC [2]: > 100 µM
MIC [3]: > 100 µM
